Common to all, as to assay: growth of human tumour cells (NCI), 48 h
Test [1] relates to TK-10 renal.
The test system of test [2] is OVCAR-5 ovarian.
Test [3] deals with SK-MEL-2 melanoma.
Test [4] concerns SR leukemia.
Test [5] relates to SK-OV-3 ovarian.
Test [6] concerns DU-145 prostate.
Test [7] deals with RPMI-8226 leukemia.
Test [8] concerns COLO 205 colon.
Test [9] has as its system U251 CNS.
The test system of test [10] is HS 578T breast.

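96-well plates; 48 h exposure; 5 concentrations. Endpoints by linear interpolation between flanking doses. Not reached: highest tested concentration assigned. GI50: concentration for 50% inhibition of growth. Definition used: TGI = concentration required for complete inhibition of growth.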 Some results are limits rather than exact numbers.

As to `CCOC(=O)Nc1nc2cc(OCC)ccc2s1`, the GI50 in test [1] is more than 72900 nM; in test [2], more than 100000 nM; in [3] it was 16300 nM; in [4], 1520 nM; in test [5], more than 100000 nM; in [6] it was more than 100000 nM. Also, the GI50 in test [7] was more than 65800 nM; in test [8] it was 7840 nM; in [9], 26800 nM; in test [10], 50000 nM. For the same compound, the TGI in [1], in test [2], in test [3], in [4], in test [5] and in test [6] was more than 100000 nM in each case. Besides, the TGI in test [7], in [8], in test [9] and in test [10] was more than 100000 nM each time.
On to `CC[C@@]12C=CCN3CC[C@]4(c5cc(NC(=O)COc6cc(OCC(=O)Nc7cc8c(cc7OC)N(C)[C@H]7[C@@](O)(C(=O)OC)[C@H](OC(C)=O)[C@]9(CC)C=CCN%10CC[C@]87[C@@H]%109)cc7oc(-c8ccccc8)cc(=O)c67)c(OC)cc5N(C)[C@@H]4[C@](O)(C(=O)OC)[C@H]1OC(C)=O)[C@H]32`, for which the GI50 was 12300 nM in [1]; 3760 nM in [2]; 43500 nM in test [3]; 2060 nM in test [4]; 6490 nM in test [5]; 4460 nM in test [6]. For the same compound, the GI50 is 3200 nM in test [7], 3880 nM in test [8], 3290 nM in test [9] and 3630 nM in test [10]. The TGI was 61700 nM in test [1]; 48200 nM in test [2]; more than 100000 nM in test [3]; more than 100000 nM in test [4]; 19700 nM in test [5]; more than 100000 nM in test [6]. Further, the TGI is more than 100000 nM in [7], 27300 nM in test [8], more than 100000 nM in [9] and more than 100000 nM in test [10].
With `COc1cc(/C=C2\CN(C(=O)CCN3CCC(=NO)CC3)C/C(=C\c3cc(OC)c(OC)c(OC)c3)C2=O)cc(OC)c1OC`, the GI50 in test [1] was 1180 nM; in test [2], 874 nM; in test [3], 1250 nM; in [4], 255 nM; in [5], 1870 nM; in test [6] it was 657 nM. The GI50 in [7] was 268 nM; in test [8], 419 nM; in [9] it was 291 nM; in [10], 441 nM. Also, the TGI in test [1] was 2800 nM; in test [2], 2280 nM; in test [3], 4140 nM; in test [4] it was more than 27700 nM; in test [5], 4780 nM; in [6] it was 1700 nM. Further, the TGI in test [7] stood at 851 nM; in test [8] it was 1270 nM; in test [9] it was 1010 nM; in test [10], 13500 nM.
As to `Oc1c(CN2CCCC2)cc(CSCc2ccccc2)c2cccnc12`, the GI50 in test [1] was 775 nM; in test [2], 4510 nM; in [3] it was 1860 nM; in test [4], 392 nM; in [5], 666 nM; in test [6] it was 1280 nM. For the same compound, the GI50 is 1420 nM in test [7], 4820 nM in [8], 789 nM in test [9] and 4700 nM in test [10]. The TGI in test [1] was 13100 nM; in test [2], 17100 nM; in test [3], 7210 nM; in test [4] it was 2320 nM; in [5], 2820 nM; in [6], 10700 nM. Further, the TGI came to 6810 nM in test [7], 18700 nM in [8], 11900 nM in test [9] and 25000 nM in [10].
On to `CC(C(=O)O)c1ccc(-c2ccccc2)c(F)c1` (stereo not given), for which the TGI in test [1], in [2], in test [3], in test [4], in test [5] and in test [6] was more than 100000 nM throughout. Moreover, the TGI in test [7], in test [8], in test [9] and in test [10] was more than 100000 nM in each case.
For the compound `COC(=O)c1cc(-c2ccc(OC)cc2)[nH]c1N/N=C/c1c(Cl)cccc1Cl`, the GI50 in [1] is 568 nM; in [2], 1490 nM; in [3], 377 nM; in test [4] it was 90.9 nM; in test [5] it was 188 nM; in test [6], 229 nM. Moreover, the GI50 in test [7] was 187 nM; in [8], 846 nM; in test [9], 292 nM; in [10], 190 nM. The TGI in test [1] worked out at 13800 nM; in test [2] it was 8370 nM; in test [3] it was 8200 nM; in test [4], 1180 nM; in test [5], 2190 nM; in test [6], 831 nM. Moreover, the TGI was determined as 575 nM in test [7], 2930 nM in test [8], 1820 nM in test [9] and 2820 nM in [10].
Consider `CCOC(=O)c1c2c(n(Cc3ccccc3)c1C)-c1nc(Cc3ccccc3)[nH]c1C(=O)C2=O`, for which the GI50 is 1480 nM in test [1]; 1980 nM in test [2]; 1690 nM in test [3]; 1650 nM in test [4]; 2310 nM in test [5]; 1580 nM in test [6]. In addition, the GI50 in test [7] is 1780 nM; in test [8], 1830 nM; in [9], 1770 nM; in [10], 2260 nM. In addition, the TGI worked out at 3080 nM in [1]; 3620 nM in test [2]; 4130 nM in test [3]; 4020 nM in [4]; 5190 nM in test [5]; 2920 nM in test [6]. For the same compound, the TGI in [7] came out at 4930 nM; in test [8] it was 3330 nM; in test [9], 3150 nM; in [10], 5340 nM.
Take `N=c1ccc2nc3c(cc(N)c4ccccc43)oc-2c1`: the GI50 in [1] is 737 nM; in test [2], 348 nM; in test [3] it was 407 nM; in test [4], 285 nM; in [5] it was 477 nM; in test [6], 265 nM. Moreover, the GI50 is 427 nM in [7], 237 nM in test [8], 223 nM in test [9] and 201 nM in [10]. Also, the TGI was found to be 2400 nM in [1]; 1200 nM in test [2]; 1610 nM in test [3]; 1290 nM in [4]; 1730 nM in [5]; 692 nM in [6]. The TGI was found to be 2940 nM in test [7], 892 nM in [8], 664 nM in [9] and 622 nM in [10].
